Measurements: ChEMBL document CHEMBL1177872, “Inhibitors of the RET tyrosine kinase based on a 2-(alkylsulfanyl)-4-(3-thienyl)nicotinonitrile scaffold” (Eur J Med Chem, 2010)

Tests used:
TPC1 = test: Antiproliferative activity against human TPC1 cells expressing RET/PCT1 after 72 hrs by [3H]thymidine incorporation assay
cells = settings: Homo sapiens, LS174T
Description: Antiproliferative activity against human RET deficient LS 174T cells after 72 hrs by [3H]thymidine incorporation assay

[1] = target: Tyrosine-protein kinase ABL1 (Homo sapiens, UniProt P00519)
Description: Inhibition of human recombinant histidine-tagged ABL (230-517) expressed in Sf9 cells by ELISA

ARO = test: Antiproliferative activity against human RET deficient ARO cells after 72 hrs by [3H]thymidine incorporation assay

Tyrosine-protein kinase ABL1, sequence (P00519 whole entry): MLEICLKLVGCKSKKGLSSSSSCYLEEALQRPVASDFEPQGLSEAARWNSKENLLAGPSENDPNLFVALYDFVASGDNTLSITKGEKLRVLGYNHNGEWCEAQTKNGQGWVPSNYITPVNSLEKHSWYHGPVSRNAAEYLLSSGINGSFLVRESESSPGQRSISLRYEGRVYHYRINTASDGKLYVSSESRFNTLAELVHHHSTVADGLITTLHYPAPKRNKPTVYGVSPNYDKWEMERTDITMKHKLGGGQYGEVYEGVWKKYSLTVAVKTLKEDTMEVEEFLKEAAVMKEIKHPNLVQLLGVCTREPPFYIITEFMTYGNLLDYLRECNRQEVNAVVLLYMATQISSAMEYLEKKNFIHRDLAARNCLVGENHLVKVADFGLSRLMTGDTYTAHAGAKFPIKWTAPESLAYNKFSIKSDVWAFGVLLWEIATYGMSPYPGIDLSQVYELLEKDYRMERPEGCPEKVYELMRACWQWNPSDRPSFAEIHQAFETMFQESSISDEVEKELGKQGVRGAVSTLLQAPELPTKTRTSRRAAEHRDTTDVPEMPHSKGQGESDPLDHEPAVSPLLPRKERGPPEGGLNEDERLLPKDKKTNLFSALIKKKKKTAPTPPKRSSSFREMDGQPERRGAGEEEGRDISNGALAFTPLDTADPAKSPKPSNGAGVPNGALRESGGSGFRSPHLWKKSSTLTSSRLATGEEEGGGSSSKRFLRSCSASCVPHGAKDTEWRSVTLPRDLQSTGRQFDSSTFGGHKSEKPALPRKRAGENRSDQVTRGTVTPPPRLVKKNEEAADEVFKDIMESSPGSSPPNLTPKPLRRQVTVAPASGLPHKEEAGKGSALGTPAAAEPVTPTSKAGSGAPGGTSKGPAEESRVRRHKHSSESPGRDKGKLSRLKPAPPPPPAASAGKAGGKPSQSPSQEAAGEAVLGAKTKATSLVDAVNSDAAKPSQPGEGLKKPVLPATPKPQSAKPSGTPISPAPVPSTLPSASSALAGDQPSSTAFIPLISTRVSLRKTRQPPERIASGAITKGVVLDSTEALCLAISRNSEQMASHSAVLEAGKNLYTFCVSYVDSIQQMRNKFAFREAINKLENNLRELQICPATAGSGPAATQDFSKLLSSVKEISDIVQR

| IC50 (cells) | IC50 [1] | SMILES | IC50 (TPC1) | IC50 (ARO) |
| --- | --- | --- | --- | --- |
| > 300 µM | > 150 µM | N#Cc1c(SCC(=O)c2ccccc2)nc2c(c1-c1ccsc1)CCCC2 | > 300 µM | – |
| 6.2 µM | 72 µM | N#Cc1c(SCc2ccccc2)nc2c(c1-c1cccs1)CCCC2 | 17 µM | 8.5 µM |
| > 300 µM | 74 µM | N#Cc1c(SCc2ccc(F)cc2)nc2c(c1-c1cccs1)CCCC2 | 101 µM | > 300 µM |

Further lines, the molecule ahead of its results:

| SMILES | IC50 (cells) | IC50 [1] | IC50 (TPC1) | IC50 (ARO) |
| --- | --- | --- | --- | --- |
| N#Cc1c(N)nc(SCC(=O)c2ccccc2)c(C#N)c1-c1ccsc1 | > 300 µM | 0.29 µM | > 300 µM | > 300 µM |
| N#Cc1c(N)nc(SCC(=O)c2ccc(Cl)cc2)c(C#N)c1-c1ccsc1 | 92 µM | 60 µM | 28 µM | 159 µM |
| COc1cc2/c(=N/c3ccc(Br)cc3F)nc[nH]c2cc1OCC1CCN(C)CC1 [VANDETANIB] | – | – | 0.116 µM | – |
